Measured values reported in article PMC12522106 (Cancer Research Communications, 2025).

Assays:
[1] = tested on: sarcospheres derived from 143B, MG63.3-GFP, and LM7 cell lines; assay: Sarcosphere resazurin metabolic activity, results stated across all three cell lines; assay type: cell-based, human; details: for effect on sarcosphere metabolic activity at Cmax: HDIs in clinical trials, tested at their Cmax, with and without MAP; for effect in initial screen: 48 hours, all three cell lines
Experimental: (§1) Khanna DVM, PhD (NCI). […] Medium was sterile filtered before use.
(§2) Highly metastatic osteosarcoma cells cultured in monolayers at 50% to 80% confluence were lifted with Accutase (Innovative Cell Technologies, Inc., cat. #NC9839010), resuspended in media, and diluted to the desired concentration. […] Following cell seeding, plates were centrifuged (1,000 g for 10 minutes at 4°C) and then incubated at 37°C with 5% CO2. […] Then, 100 μL drug treatment or vehicle was added to each well. […] Resazurin reduction on day 2 by vehicle-treated sarcospheres was compared with resazurin reduction on day 0 to calculate sarcosphere growth without drug over 2 days in selected experiments.
(§3) Plates were incubated at 37°C in 5% CO2 for 2 or 6 hours.
(§4) Sarcospheres were matured for 24 hours and then treated for 48 hours with media containing 10 µmol/L of each drug and 0.1% DMSO. […] Growth inhibition represents a more clinically translatable measure for screening studies in which a value of 0% represents stable disease since the start of treatment, values of 0% to 100% represent progression in which 100% is the untreated control, and values less than 0% represent regression in which −100% represents blank wells without sarcospheres.

LM7 sarcospheres = assay: Sarcosphere resazurin metabolic activity (initial and secondary screens); assay type: cell-based, human; details: for activity in combination with MAP: Bliss curve fitting, LM7
Experimental: as §1, §2, §3, §4

[2] = tested on: monolayers of either established osteosarcoma cell lines or PDX cell lines; set-up: method as in PMID 30395907, PMID 26601688, PMID 37457661, PMID 35411591; details: cited from earlier work
[3] = tested on: spheroids derived from 65 pediatric patients with various types of cancer; set-up: method as in PMID 36575299; details: including seven osteosarcomas; cited from earlier work
[4] = cited from earlier work

For `CC(C)[C@H](C(=O)Nc1ccc(C(=O)NO)cc1)c1ccccc1` [AR-42], the “effect on sarcosphere metabolic activity at Cmax” value (“effect … at Cmax” below) [1] was “most effective”.
For `COc1cc2nccc(Oc3ccc(NC(=O)C4(C(=O)Nc5ccc(F)cc5)CC4)cc3)c2cc1OC` [Cabozantinib, cabozantinib], the “rank in initial screen” value (LM7 sarcospheres; 10 μmol/L) was “ranked fifteenth”.
With `CN(C)Cc1c(C(=O)NCCOc2ccc(C(=O)NO)cc2)oc2ccccc12` [abexinostat] the “effect … at Cmax” value [1] was “weakly inhibited”.
For `CC(C)C[C@H](NC(=O)[C@H](Cc1ccccc1)NC(=O)c1cnccn1)B(O)O` [bortezomib], the “standing in four independent screens” value [2] is given as “among the top hits” and the “rank of 75 drugs” value [3] is given as “nineteenth”.
For `CC(C)C[C@H](NC(=O)[C@H](CCc1ccccc1)NC(=O)CN1CCOCC1)C(=O)N[C@@H](Cc1ccccc1)C(=O)N[C@@H](CC(C)C)C(=O)[C@@]1(C)CO1` [carfilzomib], the “standing in four independent screens” value [2] is given as “among the top hits” and the “rank of overall mean of the three Cmax/ED50 ratios among the 13 drugs” value ([1]; without MAP) is given as “highest overall mean”.
In the case of `N.N.[Cl][Pt][Cl]` [cisplatin], the “effect in initial screen” value ([1]; 10 μmol/L) is reported as “no detectable effect”.
For `COc1cccc2c1C(=O)c1c(O)c3c(c(O)c1C2=O)C[C@@](O)(C(=O)CO)C[C@@H]3O[C@H]1C[C@H](N)[C@H](O)[C@H](C)O1` [doxorubicin], the “effect in initial screen” value ([1]; 10 μmol/L) was “effective”.
With `CO[C@H]1C[C@@H]2CC[C@@H](C)[C@@](O)(O2)C(=O)C(=O)N2CCCC[C@H]2C(=O)O[C@H]([C@H](C)C[C@@H]2CC[C@@H](OCCO)[C@H](OC)C2)CC(=O)[C@H](C)/C=C(\C)[C@@H](O)[C@@H](OC)C(=O)[C@H](C)C[C@H](C)/C=C/C=C/C=C/1C` [everolimus] the “effect in initial screen” value ([1]; 10 μmol/L) was “little or no effect”.
With `CCN(CC)Cc1ccc2cc(COC(=O)Nc3ccc(C(=O)NO)cc3)ccc2c1` [givinostat] the “effect … at Cmax” value [1] was “weakly inhibited”.
For `Nc1ccccc1NC(=O)c1ccc(CNc2nccc(-c3cccnc3)n2)cc1` [mocetinostat], the “effect … at Cmax” value [1] was “weakly inhibited”.
In the case of `Cc1[nH]c2ccccc2c1CCNCc1ccc(/C=C/C(=O)NO)cc1` [panobinostat], the “standing in four independent screens” value [2] is given as “among the top hits” and the “rank of 75 drugs” value [3] is given as “fifteenth”.
For `Cc1ccc(C(=O)Nc2ccc(CN3CCN(C)CC3)c(C(F)(F)F)c2)cc1C#Cc1cnc2cccnn12` [ponatinib], the “activity in combination with MAP” value (LM7 sarcospheres) was “additive-to-synergistic activity”.
For `CCCCc1nc2cc(/C=C/C(=O)NO)ccc2n1CCN(CC)CC` [pracinostat], the “effect … at Cmax” value [1] was “weakly inhibited”.
With `Cn1cc(CNCC2CCN(c3ncc(C(=O)NO)cn3)CC2)c2ccccc21` [quisinostat] the “effect … at Cmax” value [1] was “weakly inhibited”.
In the case of `CN(C)Cc1ccc(S(=O)(=O)n2ccc(/C=C/C(=O)NO)c2)cc1` [resminostat], the “effect … at Cmax” value [1] is reported as “most effective”.
In the case of `CC[C@@]1(O)C(=O)OCc2c1cc1n(c2=O)Cc2cc3c(CN(C)C)c(O)ccc3nc2-1` [topotecan], the Cmax [4] is given as 6.5 nM and the “rank in initial screen” value ([1]; 10 μmol/L) is given as “ranked eighth”.
With `O=C(CCCCCCC(=O)Nc1ccccc1)NO` [vorinostat] the “activity in combination with MAP” value (LM7 sarcospheres) was “additive-to-synergistic activity”.
